Measured values published in the NIST ThermoML archive (doi:10.1021/acs.jced.6b00790).

Assay: mean ionic activity coefficient (dimensionless); mn = molality of the nth substance listed, in mol/kg
Conditions: 298.15 K, 100 kPa, Liquid, potentiometry

O=[N+]([O-])[O-].[Na+] [sodium nitrate] + O
Conditions | mean ionic activity coefficient
m1 = 0.01 | 0.893
m1 = 0.05 | 0.811
m1 = 0.1 | 0.766
m1 = 0.2001 | 0.697
m1 = 0.2999 | 0.663
m1 = 0.4 | 0.638
m1 = 0.5001 | 0.616
m1 = 0.5999 | 0.576
m1 = 0.7001 | 0.565
m1 = 0.7998 | 0.545
m1 = 0.9 | 0.518
m1 = 0.9999 | 0.502
